Several values for one entry are separate records, joined by “and”; a condition that tells them apart may be missing. Equal values may be shown once. Entries after “also recorded” stand apart in the source; their conditions may differ. Read-outs that look alike come from different tables or passages of the source. Marks after values point to notes of the source that are not given here.
Assays:
CYP1A [1] = target: T1, CYP1A (Gadus morhua, UniProt A0ACE1MZ74); assay: In vitro inhibition of CYP1A-mediated EROD activity in pooled liver microsomes; conditions: both, Atlantic cod (Gadus morhua); for Ki: hepatic microsomal CYP1A (EROD) activity
T1 sequence (A0ACE1MZ74 1-519): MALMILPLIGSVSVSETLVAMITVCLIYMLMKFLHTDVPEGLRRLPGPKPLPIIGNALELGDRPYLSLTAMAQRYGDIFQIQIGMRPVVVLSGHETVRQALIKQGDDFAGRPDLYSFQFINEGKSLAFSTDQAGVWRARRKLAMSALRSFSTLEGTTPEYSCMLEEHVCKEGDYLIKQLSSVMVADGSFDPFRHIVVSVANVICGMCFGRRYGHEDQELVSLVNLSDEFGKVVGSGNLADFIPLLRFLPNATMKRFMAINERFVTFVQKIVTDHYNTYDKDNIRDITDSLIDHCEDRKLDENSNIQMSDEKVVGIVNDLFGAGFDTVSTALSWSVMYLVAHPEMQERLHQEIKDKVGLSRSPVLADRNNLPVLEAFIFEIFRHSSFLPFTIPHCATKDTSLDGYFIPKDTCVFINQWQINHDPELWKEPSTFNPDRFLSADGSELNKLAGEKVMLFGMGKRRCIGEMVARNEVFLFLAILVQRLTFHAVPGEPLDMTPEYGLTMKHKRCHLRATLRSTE
Protocol: (§1) For in vitro inhibition studies, feral Atlantic cod of both sexes were caught off the West coast of Sweden and placed in concrete basins provided with recirculating aerated seawater at 10 ± 2°C and a salinity of 3.0% and alternative light/dark photoperiods of 12 hours. Prior to sampling, the animals were starved and acclimated to these conditions for three weeks. Eight fish were injected i.p. with β-naphthoflavone (BNF), 50 mg/kg b.w. dissolved in peanut oil (5.0 mg/ml). The fish were placed in a 100 l glass aquarium provided with aerated seawater (above) and 30% of the water volume was replaced each day. To eliminate visual stress, the sides of the aquaria were covered with black plastic sheets. After 3 days exposure, the fish were sacrificed. Livers were quickly dissected out and placed in ice-cold homogenization buffer. Livers were pooled from twenty untreated Atlantic cod and from eight BNF treated Atlantic cod, respectively. Microsomal fractions were isolated (above) and stored in aliquots at -80°C. Ethical approval from the Ethical committee of Göteborg license number (99–2003).
(§2) The CYP1A activity was determined as EROD activity, using resorufin as standard in a SpectraFluor plate reader according to the protocol provided by Nilsen et al.. The CYP3A catalytic activity was measured as BFCOD activity, using HFC as standard. The BFC assay was performed based on a published protocol by Miller et al. and optimized for rainbow trout liver microsomes (T. Hegelund and M. Celander, unpublished data). The reaction mixture consisted of 200 μM BFC, bovine serum albumin (1.6 mg/ml), 2 μM NADPH and 10 μl liver microsomes in a total volume of 200 μl in 0.2 M potassium phosphate buffer pH 7.4 in a 96-multiwell plate using a VICTOR™ 1420 Multilabel Counter from Wallac Sverige AB (Upplands Väsby, Sweden).
(§3) In vitro inhibition studies were carried out in 96-multiwell plates using a VICTOR™ 1420 Multilabel Counter. […] The substances were dissolved in DMSO and diluted with ethanol. The final concentrations never exceeded 0.01% (v/v) DMSO and 0.001% ethanol (v/v). For CYP1A and CYP3A inhibition studies, pooled liver microsomes from BNF-treated and from untreated Atlantic cod, respectively, were used.

[2] = target: T2, Hepatic Microsomal CYP1A activity (Gadus morhua, UniProt A0ACE1MZ74); assay: as above; conditions: for Type of inhibition of CYP1A (EROD) activity: cod liver microsomes, Dixon plots
T2 sequence (A0ACE1MZ74 1-519): T1 sequence (A0ACE1MZ74 1-519)
Protocol: as §1, §2, §3

CYP3A [3] = assay: in vitro; conditions: both, Atlantic cod (Gadus morhua)
Protocol: as §1, §2, §3

[4] = system: Hepatic Microsomal CYP3A activity; assay: In vitro inhibition of CYP3A-mediated BFCOD activity in pooled liver microsomes; conditions: for Type of inhibition of CYP3A (BFCOD) activity: cod liver microsomes, Dixon plots
Protocol: as §1, §2, §3

CYP3A [5] = assay: CYP3A 2D gel electrophoresis immunoblot of pooled liver microsomes from treated fish
Protocol: (§4) Hatchery reared juvenile Atlantic cod of both sexes with an average body weight (b.w.) around 400 g were supplied by Sekkingstad, Preserving AS, Hordaland, Norway. The fish were kept in 0.5 m^3 indoor glass fibre tanks, at Industrial Laboratory (ILAB), Bergen High Technology Centre (Bergen, Norway), provided with continuously flowing seawater at a temperature of 8 ± 0.5°C and a salinity of 3.4%. Throughout the experimental period, the fish were subjected to continuous 24 h artificial light (the regime the farm used for optimal fish growth). The fish were acclimated to these conditions for five days prior to the experimental period. […] Control fish were injected with 5 ml peanut oil/kg b.w. (vehicle). There were eight to nine fish in each treatment group. When designing the experiment, we could only test one combination due to limited fish numbers.
(§5) After five days exposure, the fish were sacrificed by a sharp blow to the head. Blood samples were collected from the dorsal vein using a heparinized syringe and the liver was quickly dissected out and placed in ice-cold homogenization buffer (0.1 M sodium phosphate buffer pH 7.4, containing 0.15 M KCl, 1 mM EDTA and 1 mM DTT). Liver microsomes were prepared according to the published protocol by Goksøyr, and stored at -80°C. Total microsomal protein content was measured according to a published method by Bradford, using bovine serum albumin as standard, and a SpectraFluor spectrophotometer from Tecan (Grödig/Salzburg, Austria). Blood plasma was isolated by centrifugation at 5,000 g for 10 min at room temperature and stored at -80°C. Ethical approval licence number of ILAB Bergen: 119. Experiment no. 0204.

vitellogenin = assay: Plasma vitellogenin analysis (ELISA); type: in vivo, Atlantic cod (Gadus morhua); conditions: i.p., 5 days; for Effect on plasma vitellogenin: in words; for Vitellogenin plasma level: mean (SD), n = 7–8
Protocol: (§6) Ethical approval licence number of ILAB Bergen: 119. Experiment no. 0204.
Plasma levels of vitellogenin protein were determined using a non-competitive sandwich ELISA kit and employing rabbit PAb against Atlantic cod vitellogenin from Biosense Laboratories AS (Bergen, Norway). Each plasma sample was diluted (1:20, 1:15,000 and 1:50,000) and 100 μl was analyzed and compared to purified Atlantic cod vitellogenin protein standards (ranging between 0.12 and 2,000 ng/ml). The signal was detected at A492 after 15 min incubation with substrate solution, using a VICTOR™ 1420 Multilabel Counter.

17β-estradiol = assay: Plasma 17β-estradiol analysis (EIA); type: in vivo, Atlantic cod (Gadus morhua); conditions: i.p., 5 days; for Effect on 17β-estradiol plasma levels: compared to vehicle or single compounds, in words; for 17β-Estradiol plasma level: mean (SD), n = 8
Protocol: as §6
(§7) Plasma levels of 17β-estradiol and testosterone were determined using competitive EIA kits from Cayman Chemical (Ann Arbor, MI, USA). Plasma levels of 11-keto-testosterone were analyzed using a competitive EIA kit, from Biosense Laboratories AS (Bergen, Norway). Plasma from each fish was concentrated (2:1) by extraction once with six volumes diethyl ether and 50 μl was analyzed and compared to purified standard substances. The signals were detected at A405 after 40 min (17β-estradiol), 60 min (testosterone) or 80 min (11-keto-testosterone) incubation with substrate solution, using a VICTOR™ 1420 Multilabel Counter.

testosterone = assay: Plasma testosterone analysis (EIA); type: in vivo, Atlantic cod (Gadus morhua); conditions: i.p., 5 days
Protocol: as §4
as §5, with “Liver microsomes were prepared according to the published protocol by Goksøyr, and stored at -80°C.” left out, “Blood plasma was isolated by centrifugation at 5,000 g for 10 min at room temperature and stored at -80°C. Ethical approval licence number of ILAB Bergen: 119. Experiment no. 0204.” left out

11-keto-testosterone = assay: Plasma 11-keto-testosterone analysis (EIA); type: in vivo, Atlantic cod (Gadus morhua); conditions: i.p., 5 days; for Effect on 11-keto-testosterone plasma levels: compared to vehicle or single compounds, in words; for 11-Keto-Testosterone plasma level: mean (SD), n = 6–8
Protocol: as §6, §7

CYP3A [6] = assay: In vivo hepatic CYP3A protein expression (western blot); conditions: i.p., 5 days, KC 12, NP 25, KC+NP 12+25 mg/kg
Protocol: as §4, with “There were eight to nine fish in each treatment group. When designing the experiment, we could only test one combination due to limited fish numbers.” left out
(§8) After five days exposure, the fish were sacrificed by a sharp blow to the head. […] Total microsomal protein content was measured according to a published method by Bradford, using bovine serum albumin as standard, and a SpectraFluor spectrophotometer from Tecan (Grödig/Salzburg, Austria). […]
(§9) Western blot analyses of 40 μg hepatic microsomal protein were carried out using enhanced chemoluminescence (ECL), based on the protocol previously described and PAb raised against rainbow trout CYP1A and CYP3A [41, 55, 56]. The intensity of each protein band was determined by densitometry on scanned fluorograms using Labview 7.0 from National Instruments (Austin, TX, USA).

CYP3A [7] = assay: In vitro pre-incubation of liver microsomes followed by CYP3A western blot; conditions: pooled cod liver microsomes pre-incubated 10, 30, 60 min
Protocol: The CYP3A western blot analysis was performed as described above.

[8] = system: Hepatic Microsomal CYP3A activity; set-up: method as in PMID 15084407; conditions: pooled cod liver microsomes; substrate BFC; published earlier, ref [22]; read-out: IC50, hepatic microsomal CYP3A (BFCOD) activity; cited from earlier work
hepatic BFCOD activities [9] = conditions: ref [13],[22]; read-out: IC50, hepatic BFCOD activity in killifish; cited from earlier work
hepatic BFCOD activities [10] = conditions: ref [13],[22]; read-out: IC50, hepatic BFCOD activity in rainbow trout; cited from earlier work
[11] = target: T3, cDNA Expressed Human CYP3A4 (Homo sapiens, UniProt P08684); assay: Inhibition of BFCOD activity in cDNA expressed human CYP3A4 baculovirus supersomes; type: biochemical; conditions: substrate BFC
T3 construct: purchased BD Biosciences Company, Gentest (Woburn, MA, USA); host or cells: baculovirus expression system (supersomes)

CYP1A [12] = assay: In vivo hepatic CYP1A enzyme (EROD) activity after i.p. exposure; conditions: 5 days, NP 25 mg/kg, ethynylestradiol 5 mg/kg
Protocol: as §4, §8
The CYP1A activity was determined as EROD activity, using resorufin as standard in a SpectraFluor plate reader according to the protocol provided by Nilsen et al.. The CYP3A catalytic activity was measured as BFCOD activity, using HFC as standard. […]

CYP1A [13] = assay: In vivo hepatic CYP1A protein expression (western blot); conditions: i.p., 5 days, NP 25 mg/kg, ethynylestradiol 5 mg/kg
Protocol: as §4, with “There were eight to nine fish in each treatment group. When designing the experiment, we could only test one combination due to limited fish numbers.” left out
as §8, §9

[14] = no [S] level stated, Dixon plot
[15] = 2D gel immunoblot, pooled liver microsomes of 8–9 treated fish

T3 sequence (P08684 whole entry): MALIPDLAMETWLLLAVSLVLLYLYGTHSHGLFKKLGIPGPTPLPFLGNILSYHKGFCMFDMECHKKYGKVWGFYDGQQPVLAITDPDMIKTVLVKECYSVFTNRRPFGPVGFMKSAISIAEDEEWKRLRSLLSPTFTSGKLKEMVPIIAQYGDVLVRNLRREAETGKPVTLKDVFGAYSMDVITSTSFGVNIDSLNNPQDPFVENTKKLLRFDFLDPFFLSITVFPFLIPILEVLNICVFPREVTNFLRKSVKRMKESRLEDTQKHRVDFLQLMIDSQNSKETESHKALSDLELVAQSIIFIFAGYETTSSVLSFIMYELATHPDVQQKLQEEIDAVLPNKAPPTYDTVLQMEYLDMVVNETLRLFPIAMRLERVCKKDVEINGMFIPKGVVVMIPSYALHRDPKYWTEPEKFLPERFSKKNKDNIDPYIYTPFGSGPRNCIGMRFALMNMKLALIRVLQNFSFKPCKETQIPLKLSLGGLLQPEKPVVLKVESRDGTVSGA

Row | SMILES | IC50 (CYP1A [1]) | Ki (CYP1A [1]; [14]) | Type of inhibition of CYP1A (EROD) activity [2] | IC50 (CYP3A [3]; microsomes, pH 7.4) | Type of inhibition of CYP3A (BFCOD) activity [4] | Effect on plasma vitellogenin (vitellogenin) | Vitellogenin plasma level (vitellogenin) | Effect on 17β-estradiol plasma levels (17β-estradiol) | 17β-Estradiol plasma level (17β-estradiol) | Effect on 11-keto-testosterone plasma levels (11-keto-testosterone) | 11-Keto-Testosterone plasma level (11-keto-testosterone) | Effect on CYP3A protein expression (CYP3A [6]) | Induction of the more basic CYP3A-immunoreactive isoform (pI around 5.1) (CYP3A [5]; [15]) | also measured
1 | C#C[C@]1(O)CC[C@H]2[C@@H]3CCc4cc(O)ccc4[C@H]3CC[C@@]21C [ethynylestradiol, 17α-ethynylestradiol] | 20 µM | 5.4 to 10.3 µM | non-competitive inhibitor | 40 µM | uncompetitive inhibitor | induction | 4,350 (1,463) ^a μg/ml plasma | no statistically significant effect | 100 (69) pg/ml plasma | no statistically significant effect | 35 (23) pg/ml plasma | – | – | Ki (CYP1A [1]; high [S], high [S] 7-ethoxyresorufin, one representative Dixon plot): 10.3 µM; Ki (CYP1A [1]; low [S], low [S] 7-ethoxyresorufin, one representative Dixon plot): 5.4 µM; Ki (CYP3A [3]; pooled liver microsomes from untreated Atlantic cod, pH 7.4, probe BFC): 54 to 95 µM; Ki (CYP3A [3]; pooled liver microsomes from untreated Atlantic cod, pH 7.4, probe BFC (high [S])): 95 µM; Ki (CYP3A [3]; pooled liver microsomes from untreated Atlantic cod, pH 7.4, probe BFC (low [S])): 54 µM; Induction of the more basic CYP3A-immunoreactive isoform (pI around 5.1) (CYP3A [5]; in vivo): did not induce; Effect on testosterone plasma levels (testosterone; compared to vehicle or single compounds, in words): no statistically significant effect; Testosterone plasma level (testosterone; mean (SD), n = 7–8): 90 (40) pg/ml plasma
2 | CC(=O)N1CCN(c2ccc(OCC3COC(Cn4ccnc4)(c4ccc(Cl)cc4Cl)O3)cc2)CC1 (stereo not shown) [ketoconazole] | – | – | – | – | non-competitive inhibitor | – | 0.6 (0.9) μg/ml plasma | – | 60 (26) pg/ml plasma | – | 71 (46) pg/ml plasma | no effect | inducible; also recorded: induced | Ki (CYP3A [3]; microsomes, pH 7.4): […]; Ki, hepatic microsomal CYP3A (BFCOD) activity [4, 14]: sub-μM range; Effect of pre-incubation on hepatic microsomal CYP3A protein levels (CYP3A [7]): no effects; IC50 [8]: 0.3 µM; IC50 (hepatic BFCOD activities [9]): 0.01 µM; IC50 (hepatic BFCOD activities [10]): 0.1 µM
3 | CCCCCCCCCc1ccc(O)cc1 [nonylphenol, 4-nonylphenol] | 5.2 µM | ~3.5 µM | non-competitively inhibited | 160 µM | – | induction | 266 (199) ^a μg/ml plasma | no statistically significant effect | 76 (52) pg/ml plasma | no statistically significant effect | 42 (67) pg/ml plasma | no effect | did not induce | Type of inhibition of CYP1A (EROD) activity ([2]; listed as Nonylphenol): non-competitive inhibitor; Ki ([2]; read-out: Ki, hepatic microsomal CYP1A (EROD) activity, no [S] level stated, Dixon plot, listed as Nonylphenol (NP)): 3.5 µM; IC50 [11]: 35 µM; Decrease in CYP1A (EROD) activity compared to fish exposed to ketoconazole + nonylphenol (CYP1A [12]): 65%; Reduction of CYP1A (EROD) activity compared to vehicle treated fish (CYP1A [12]): 41% and 40%; Effect on CYP1A protein expression (CYP1A [13]): no effect

From paper PMC549046 (Comparative Hepatology, 2005)
